28 compounds from ChEMBL document CHEMBL1130375, “Pyridazinones with a pendant acylsulfonamide moiety as endothelin receptor antagonists” (Bioorg Med Chem Lett, 1997) can be followed below.

The target in experiment [1] is T1, Endothelin-1 receptor (Rattus norvegicus, UniProt P26684).
T1 sequence (P26684 whole entry): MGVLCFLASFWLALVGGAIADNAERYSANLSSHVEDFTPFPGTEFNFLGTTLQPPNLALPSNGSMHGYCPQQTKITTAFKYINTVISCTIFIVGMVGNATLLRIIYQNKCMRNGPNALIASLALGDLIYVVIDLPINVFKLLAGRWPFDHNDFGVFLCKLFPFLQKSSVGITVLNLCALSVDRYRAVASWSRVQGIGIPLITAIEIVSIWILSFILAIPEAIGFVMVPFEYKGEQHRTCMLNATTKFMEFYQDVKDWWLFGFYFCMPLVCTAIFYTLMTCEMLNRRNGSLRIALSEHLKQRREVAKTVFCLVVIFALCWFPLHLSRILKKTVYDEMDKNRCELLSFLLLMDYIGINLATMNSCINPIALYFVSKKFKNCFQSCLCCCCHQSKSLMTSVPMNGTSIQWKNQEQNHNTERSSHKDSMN
The experiment is described as follows: Compound was evaluated for the antagonism at the Endothelin A receptor (G-protein coupled endothelin A). The experiment is classed as functional. Particulars: read-out: pA2 (converted).

Experiment [2] has as its target T1, Endothelin-1 receptor. The experiment is described as follows: Inhibition of specific binding of [125I]ET1 (endothelin 1) to the endothelin A receptor of rat aorta membranes. It is filed as cell membranes, Membrane.
Experiment [3] addresses T2, Endothelin receptor type B (Sus scrofa, UniProt P35463).
T2 sequence (P35463 whole entry): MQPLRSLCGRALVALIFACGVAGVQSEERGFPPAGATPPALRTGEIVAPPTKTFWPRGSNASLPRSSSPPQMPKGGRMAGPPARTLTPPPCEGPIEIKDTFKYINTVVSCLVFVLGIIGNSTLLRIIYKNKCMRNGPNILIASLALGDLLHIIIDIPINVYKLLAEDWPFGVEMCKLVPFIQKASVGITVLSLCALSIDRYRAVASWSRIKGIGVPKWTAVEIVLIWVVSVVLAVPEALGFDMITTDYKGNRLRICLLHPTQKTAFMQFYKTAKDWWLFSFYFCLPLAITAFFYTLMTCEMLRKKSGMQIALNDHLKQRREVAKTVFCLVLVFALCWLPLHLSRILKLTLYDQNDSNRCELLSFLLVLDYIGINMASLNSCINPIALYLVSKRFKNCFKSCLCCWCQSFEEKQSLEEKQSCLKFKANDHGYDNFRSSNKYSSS
The experiment is described as follows: Inhibition of specific binding of [125I]ET1 (endothelin 1) to endothelin B receptor of porcine kidney membranes.

The target of experiment [4] is T1, Endothelin-1 receptor. The experiment is described as follows: Compound was evaluated for the antagonism at the Endothelin A receptor in isolated rat aortic rings. The conditions noted are these: read-out: pA2 (converted). The experiment is classed as functional.
Experiment [5] has as its target T3, Endothelin receptor type B (Homo sapiens, UniProt P24530).
T3 sequence (P24530 whole entry): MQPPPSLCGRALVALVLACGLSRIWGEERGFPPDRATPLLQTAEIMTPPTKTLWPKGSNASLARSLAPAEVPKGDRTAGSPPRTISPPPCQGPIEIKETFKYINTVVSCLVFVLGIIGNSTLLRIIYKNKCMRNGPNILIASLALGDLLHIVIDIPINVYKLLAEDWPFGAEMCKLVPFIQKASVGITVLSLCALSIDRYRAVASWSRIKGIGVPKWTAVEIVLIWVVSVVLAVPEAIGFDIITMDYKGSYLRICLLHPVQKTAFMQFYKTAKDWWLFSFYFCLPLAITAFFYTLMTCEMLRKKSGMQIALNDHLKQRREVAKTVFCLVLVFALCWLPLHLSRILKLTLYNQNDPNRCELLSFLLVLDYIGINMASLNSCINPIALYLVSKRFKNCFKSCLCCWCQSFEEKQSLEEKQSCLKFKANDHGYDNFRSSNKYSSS
The experiment is described as follows: Compound was evaluated for the antagonism at the Endothelin B receptor in isolated rabbit jugularis vein. The conditions noted are these: target entry is the homologue from another species; read-out: pA2 (converted). It is filed as functional, Oryctolagus cuniculus.

Broadly, the IC50 is the concentration that inhibits the measured activity by half. Read a low IC50 as greater potency. For `CCCc1cc(C(=O)O)ccc1OC(C(=O)NS(=O)(=O)c1ccc(C(C)C)cc1)c1ccc2c(c1)OCO2` (stereo not given), the Kb on Endothelin-1 receptor [1] was 3.16 nM. Further, the IC50 on Endothelin-1 receptor [2] stood at 41 nM; in experiment [3], 900 nM.

Consider `CCCc1ccc(=O)n(C(C(=O)NS(=O)(=O)c2ccc(C(C)C)cc2)c2ccc3c(c2)OCO3)n1` (stereo not given), for which the IC50 on Endothelin-1 receptor [2] was 640 nM; in experiment [3] it was 8400 nM.

For the compound `COc1ccc(C2=NN(C(C(=O)NS(=O)(=O)c3ccc(C(C)C)cc3)c3ccc4c(c3)OCO4)C(=O)CC2)cc1` (stereo not given), the IC50 on Endothelin-1 receptor [2] turned out to be 2900 nM; in experiment [3], 4200 nM.

For the compound `COc1ccc(S(=O)(=O)NC(=O)C(c2ccc3c(c2)OCO3)n2nc(C)ccc2=O)cc1` (stereo not given), the IC50 on Endothelin-1 receptor [2] is 160 nM; in experiment [3], > 100000 nM.

Regarding `COc1ccc(C2=NN(C(C(=O)NS(=O)(=O)c3ccc(C(C)C)cc3)c3ccc4c(c3)OCO4)C(=O)CC2)cc1OC` (stereo not given), the figures for the IC50 (at Endothelin-1 receptor [2]; in experiment [3]) were 4100 nM and > 100000 nM, respectively.

Turning to `Cc1ccc(=O)n(C(C(=O)NS(=O)(=O)c2ccc(C(C)C)cc2)c2ccc3c(c2)OCO3)n1` (stereo not given), on Endothelin-1 receptor [1], the Kb was 631 nM. Moreover, the half-inhibitory concentration (IC50) on Endothelin-1 receptor [2] was determined as 34 nM; in experiment [3], 2900 nM.

For `CC(C)c1ccc(S(=O)(=O)NC(=O)C(c2ccc3c(c2)OCO3)N2N=C(c3cccs3)CCC2=O)cc1` (stereo not given), the IC50 at Endothelin-1 receptor [2] was 3200 nM; in experiment [3], > 100000 nM.

Regarding `Cc1ccc(=O)n(C(C(=O)NS(=O)(=O)c2ccc(C(C)(C)C)cc2)c2ccc3c(c2)OCO3)n1` (stereo not given), the IC50 on Endothelin-1 receptor [2] came to 32 nM; in experiment [3] it was 2000 nM.

Consider `Cc1ccc(=O)n(C(C(=O)NS(=O)(=O)c2ccc(-c3ccccc3)cc2)c2ccc3c(c2)OCO3)n1` (stereo not given), for which the IC50 on Endothelin-1 receptor [2] was 240 nM; in experiment [3] it was 2400 nM.

Consider `CC(C)c1ccc(S(=O)(=O)NC(=O)C(c2ccc3c(c2)OCO3)n2nc(C(C)(C)C)ccc2=O)cc1` (stereo not given), for which the IC50 was 4000 nM at Endothelin-1 receptor [2] and > 100000 nM in experiment [3].

Consider `O=C(O)C(c1ccc2c(c1)OCO2)N1N=C(c2ccccc2)CCC1=O` (stereo not given), for which the IC50 (at Endothelin-1 receptor [2]; in experiment [3]) was > 100000 nM in each case.

Consider `CC(C)c1ccc(S(=O)(=O)NC(=O)C(c2ccc3c(c2)OCO3)N2N=C(c3ccc(Cl)cc3)CCC2=O)cc1` (stereo not given), for which the IC50 at Endothelin-1 receptor [2] turned out to be 2700 nM; in experiment [3], 6400 nM.

For `CC(C)c1ccc(S(=O)(=O)NC(=O)C(c2ccc3c(c2)OCO3)n2nc(C3CC3)ccc2=O)cc1` (stereo not given), the IC50 on Endothelin-1 receptor [2] amounted to 260 nM; in experiment [3], 2600 nM.

Turning to `Cc1cc(=O)n(C(C(=O)NS(=O)(=O)c2ccc(C(C)C)cc2)c2ccc3c(c2)OCO3)nc1C` (stereo not given), the IC50 at Endothelin-1 receptor [2] was 340 nM; in experiment [3], 5200 nM.

Turning to `COc1ccc(C2=NN(C(C(=O)NS(=O)(=O)c3ccc(C(C)C)cc3)c3ccc4c(c3)OCO4)C(=O)CC2)c(OC)c1` (stereo not given), the IC50 (on Endothelin-1 receptor [2]; in experiment [3]) was > 100000 nM throughout.

In the case of `Cc1cc(C)c(=O)n(C(C(=O)NS(=O)(=O)c2ccc(C(C)C)cc2)c2ccc3c(c2)OCO3)n1` (stereo not given), the results for the Kb (on Endothelin-1 receptor [4]; in experiment [5]) were 1260 nM and 1580 nM, respectively. For the same compound, the IC50 on Endothelin-1 receptor [2] was found to be 29 nM; in experiment [3], 3500 nM.

Take `CC(C)c1ccc(S(=O)(=O)NC(=O)C(c2ccc3c(c2)OCO3)N2N=C(c3ccccc3)CCC2=O)cc1` (stereo not given): the IC50 at Endothelin-1 receptor [2] is 2600 nM; in experiment [3] it was > 100000 nM.

With `CC(C)c1ccc(S(=O)(=O)NC(=O)C(c2ccc3c(c2)OCO3)n2nc3c(cc2=O)CCC3)cc1` (stereo not given), the figures for the IC50 (at Endothelin-1 receptor [2]; in experiment [3]) were 2500 nM and 1700 nM, respectively.

Turning to `Cc1ccc(=O)n(C(C(=O)NS(=O)(=O)c2ccc(Br)cc2)c2ccc3c(c2)OCO3)n1` (stereo not given), the values for the IC50 (at Endothelin-1 receptor [2]; in experiment [3]) were 230 nM and > 100000 nM, respectively.

With `CCc1cc(C)nn(C(C(=O)NS(=O)(=O)c2ccc(C(C)C)cc2)c2ccc3c(c2)OCO3)c1=O` (stereo not given), the figures for the IC50 (on Endothelin-1 receptor [2]; in experiment [3]) were 32 nM and 2600 nM, respectively.

Consider `CCCc1cc(C)c(=O)n(C(C(=O)NS(=O)(=O)c2ccc(C(C)C)cc2)c2ccc3c(c2)OCO3)n1` (stereo not given), for which the IC50 amounted to 290 nM at Endothelin-1 receptor [2] and 4500 nM in experiment [3].

Regarding `COc1ccc(OC)c(C2=NN(C(C(=O)NS(=O)(=O)c3ccc(C(C)C)cc3)c3ccc4c(c3)OCO4)C(=O)CC2)c1` (stereo not given), the IC50 (at Endothelin-1 receptor [2]; in experiment [3]) was > 100000 nM throughout.

Regarding `COc1ccc(-c2cc(C)c(=O)n(C(C(=O)NS(=O)(=O)c3ccc(C(C)C)cc3)c3ccc4c(c3)OCO4)n2)cc1` (stereo not given), the IC50 at Endothelin-1 receptor [2] was 4000 nM; in experiment [3], 7700 nM.

Regarding `Cc1ccc(=O)n(C(C(=O)NS(=O)(=O)c2ccccc2)c2ccc3c(c2)OCO3)n1` (stereo not given), the results for the IC50 (at Endothelin-1 receptor [2]; in experiment [3]) were 230 nM and > 100000 nM, respectively.

In the case of `COc1ccc(-c2ccc(=O)n(C(C(=O)NS(=O)(=O)c3ccc(C(C)C)cc3)c3ccc4c(c3)OCO4)n2)cc1` (stereo not given), the IC50 at Endothelin-1 receptor [2] was determined as 3200 nM; in experiment [3] it was 5700 nM.

`Cc1cc(C)c(=O)n(C(C(=O)NS(=O)(=O)c2ccc(C(C)(C)C)cc2)c2ccc3c(c2)OCO3)n1` (single isomer, unassigned; form 1): the IC50 on Endothelin-1 receptor [2] was 2600 nM; in experiment [3], > 100000 nM.

Regarding `Cc1cc(C)c(=O)n(C(C(=O)NS(=O)(=O)c2ccc(C(C)(C)C)cc2)c2ccc3c(c2)OCO3)n1` (single isomer, unassigned; form 2), the IC50 on Endothelin-1 receptor [2] was found to be 18 nM; in experiment [3], 550 nM.

For the compound `Cc1cc(C)c(=O)n(C(C(=O)NS(=O)(=O)c2ccc(C(C)(C)C)cc2)c2ccc3c(c2)OCO3)n1` (stereo in doubt; 2q), the IC50 at Endothelin-1 receptor [2] came to 20 nM; in experiment [3] it was 1200 nM.
